The record followed here is US5411983A, “Certain hyrdoxy-phosphinyl-oxy-phenylmethyl-imidazolium hydroxide inner salts as PAF antagonists” (American Cyanamid Company, priority 1993, dated 1995).

This assay has as its target PAF receptor (Oryctolagus cuniculus, UniProt G1TEI7). The assay can be described thus: Inhibition of PAF induced platelet aggregation in rabbit platelet rich plasma (PRP). Type of assay: cell-based, rabbit (male New Zealand White). More on the design: immediately centrifuged at 800 rpm for 10 minutes at room temperature to recover the platelet rich plasma (PRP); endogenous in cells; host or cells: rabbit platelets in platelet rich plasma (male New Zealand White rabbits). The conditions noted are these: rabbit platelet rich plasma. The procedure:
Platelet activating factor (PAF) compounds were evaluated as PAF receptor antagonists in vitro by measuring inhibition of PAF induced platelet aggregation. Platelet aggregation was measured by a modification of the method of A. Wissner, et. al., J. Med. Chem., 27, 1174, 1984.
Approximately 120-240 ml of blood were collected by cardiac puncture from unanesthetized male New Zealand White rabbits (Whaley's Summit View Farms, Belvedere, N.J.) with the use of 3.2% sodium citrate anticoagulant (1 part of citrate/10 parts of blood). All syringes and pipets were plastic. The blood was gently mixed and immediately centrifuged at 800 rpm for 10 minutes at room temperature to recover the platelet rich plasma (PRP). Platelet poor plasma (PPP) was prepared by centrifuging PRP at 2800 rpm for 10 minutes at room temperature.
Dilutions (1:3000) Of PRP in Isoton diluent were made and platelet counts were determined on a Coulter Thrombocounter which was standardized with platelet reference standards (Interscience Platelet Control, Portland, Oreg.). PRP platelet counts were adjusted to 500,000 platelets/μl by the addition of PPP.
L-PAF was obtained from Calbiochem. A stock solution of 1-2 E-3M was prepared in 10% ethanol in water and serial working dilutions were made using phosphate buffered saline (PBS). 1-2 E-3M stock solutions of test compounds were prepared in 100% methanol and serially diluted in PBS. All solutions were made up in plastic tubes, stored on ice and protected from heat and light. Solutions were prepared fresh or frozen at -20° C. and used within 48 hours.
Incubation mixtures consisted of 400 μl PRP, 50 μl of PBS diluent or test compound and 50 μl of PAF agonist. More specifically, 400 μl of PRP was stabilized in a cuvette for 1-2 minutes at 37° C. in the aggregometer to achieve a stable baseline, then 50 μl of PBS or test compound, was added and incubated for 5 minutes before addition of the challenge concentration of PAF ([…], as determined from the dose response curve for PAF for that experiment). Aggregation was monitored for 5 minutes. Samples containing test compound or diluent were run simultaneously for comparison. Test compounds were initially evaluated at a screening concentration of 1E-5M. Those producing ≥ 50% inhibition of the magnitude of aggregation were then reevaluated in a dose response fashion (final concentrations 1E-7M to 5E-5M) and IC50 values were determined. Ki values were also calculated in some cases from [formula] where Ki =inhibitory constant
IC50 =molar concentration of test compound which gives 50% inhibition
[PAF]=molar concentration of PAF used as challenges
EC50 =molar concentration of PAF which gives 50% of maximal aggregation.
The recording equipment consisted of single or dual channel Chronolog aggregometers connected to dual channel 10 MV full scale deflection Omniscribe chart recorders (Houston Instruments). […] The bead suspension was used to set the 0% light transmission mark and clear water was used to set the 100% light transmission mark. These limits defined a full scale deflection. The aggregation traces were analyzed by a digitizing method (C. Kohler and B. Zoltan, J. Pharm. Methods, 12, 113, 1984) with x, y coordinate data stored in a computer file. A suitable program computed parameters of interest such as the magnitude of aggregation.

[1] abbreviates: PAF challenge 1E-6M, read-out: IC50 (M) PRP, inhibition of PAF-induced platelet aggregation.
Where [2] appears, read: PAF challenge 1E-7M, read-out: IC50 (M) PRP, inhibition of PAF-induced platelet aggregation.
Where [3] appears, read: PAF challenge 5E-8M, read-out: IC50 (M) PRP, inhibition of PAF-induced platelet aggregation.
Setting [4] is: IC50 (M) PRP, inhibition of PAF-induced platelet aggregation, PAF challenge 5E-8M.
The mark [5] stands for this setting: IC50 (M) PRP, inhibition of PAF-induced platelet aggregation, PAF challenge 1E-7M.

Counter-ions that a name gives are not always drawn. Like-named read-outs stand apart in the source and are kept apart here.

PAF receptor, sequence (G1TEI7 1-342): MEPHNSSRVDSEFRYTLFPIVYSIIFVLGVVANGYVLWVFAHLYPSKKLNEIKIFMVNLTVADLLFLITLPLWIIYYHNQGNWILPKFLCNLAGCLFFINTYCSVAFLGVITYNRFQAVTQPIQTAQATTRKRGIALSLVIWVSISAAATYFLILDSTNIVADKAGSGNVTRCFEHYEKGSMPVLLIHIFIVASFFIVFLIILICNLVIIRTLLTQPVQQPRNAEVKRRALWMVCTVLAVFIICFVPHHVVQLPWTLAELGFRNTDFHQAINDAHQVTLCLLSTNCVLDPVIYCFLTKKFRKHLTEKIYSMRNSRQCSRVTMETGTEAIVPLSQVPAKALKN

With `CCCCCCCCCCCCCCCCOCC(COCc1cccc(C[n+]2ccsc2)c1)OC` (stereo not shown) [3-[[3-[[3-(Hexadecyloxy)-2-methoxypropoxy]methyl]phenyl]methyl]thiazolium bromide], the IC50 (in general, the concentration needed to halve the response being measured) reads like this: under setting [1], 2.6e-05 M; under setting [2], 3.7e-06 M; under setting [3], 1.3e-06 M.
The compound `CCCCCCCCCCCCCCCCCCNC(=O)OCC(COP(=O)([O-])Oc1cccc(C[n+]2ccccc2)c1)OC` (stereo not shown) [3-[[3-[(1-Hydroxy-4-methoxy-7-oxo-2,6-dioxa-8-aza-1-phosphahexacosyl)oxy]phenyl]methyl]pyridinium, hydroxide, inner salt, P-oxide] gave an IC50 under setting [4] of 4.4e-06 M.
The same measure, in the same setting: with `CCCCCCCCCCCCCCCCCCNC(=O)OCC(COP(=O)([O-])Oc1cccc(C[N+](C)(C)C)c1)OC` (stereo not shown) [3-[(1-(Hydroxy-4-methoxy-7-oxo-2,6-dioxa-8-aza-1-phosphahexacosyl)oxy]- --N, --N, --N-trimethylbenzenemethanaminium, hydroxide, inner salt, P-oxide] the figure was 0.0001 M; with `CCCCCCCCCCCCOc1cccc(OCC(COP(=O)([O-])Oc2cccc(C[N+](C)(C)C)c2)OC)c1C` (stereo not shown) [3-[[[3-[3-(Dodecyloxy)-2-methylphenoxy]-2-methoxypropoxy]hydroxyphosphinyl]oxy]-N,N,N-trimethylbenzenemethanaminum, hydroxide, inner salt], 6e-06 M.
Turning to `CCCCCCCCCCCCOc1cccc(OCC(COP(=O)([O-])Oc2cccc(C[n+]3csc(CCO)c3C)c2)OC)c1C` (stereo not shown) [3-[[3-[[[3-[3-(Dodecyloxy)-2-methyl-phenoxy]-2-methoxypropoxy]hydroxyphosphinyl]oxy]phenyl]methyl)-5-(2-hydroxyetbyl)-4-methylthiazolium, hydroxide, inner salt], under setting [4], the midpoint of inhibition, the IC50, lay at 1.7e-05 M.
Under setting [4], `COC(COCc1ccc(OCc2ccccc2)cc1)COP(=O)([O-])Oc1cccc(C[n+]2ccsc2)c1` (stereo not shown) [3-[[3-[(Hydroxy[2-methoxy-3-[[4-(phenylmethoxy)phenyl]methoxy]propoxy]phosphinyl]oxy]phenyl]methyl)thiazolium, hydroxide, inner salt] had an IC50 of 0.0004 M.
As to `CCCCCCCCCCCCOc1cccc(OCC(COP(=O)([O-])Oc2cccc(C[n+]3csc(C)c3)c2)OC)c1C` (stereo not shown) [3-[[3-[[[3-[3-(Dodecyloxy]-2-methylphenoxy]-2-methoxypropoxy]hydroxyphosphinyl]oxy]phenyl]methyl]-5-methylthiazolium, hydroxide, inner salt], the IC50 is, setting by setting: (IC50 (M) PRP, inhibition of PAF-induced platelet aggregation, PAF challenge 1E-6M) 3e-05 M; under setting [5], 2e-06 M; under setting [4], 9.3e-07 M.
Under setting [4], `CCCCCCCCCCCCOc1cccc(OCC(COP(=O)([O-])Oc2cccc(C[n+]3ccccc3)c2)OC)c1C` (stereo not shown) [1-[[3-[[[3-[3-(Dodecyloxy)-2-methylphenoxy]-2-methoxypropoxy]hydroxyphosphinyl]oxy]phenyl]methyl]pyridinium, hydroxide, inner salt] had a 50% inhibitory concentration (IC50) of 1.7e-07 M.
Take `CCCCCCCCCCCCCCCCOCC(COCc1cccc(Cn2ccnc2)c1)OC` (stereo not shown) [1-[[3-[[3-(Hexdecyloxy)-2-methoxypropoxy]methyl]phenyl]methyl]-1H-imidazole]: under setting [3], the IC50 worked out at 5.8e-05 M.
Take `CCCCCCCCCCOCCOCCOCC(COP(=O)([O-])Oc1cccc(C[n+]2ccsc2)c1)OC` (stereo not drawn) [3-[[3-[(1-Hydroxy-4-methoxy-2,6,9,12-tetraoxa-l-phosphadocos-l-yl)oxy]-phenyl]methyl]thiazolium, hydroxide, inner salt, P-oxide]: under setting [4], the IC50 came to 8.3e-06 M.
For `CCCCCCCCCCCCCCCCCCOP(=O)([O-])Oc1cccc(C[n+]2ccsc2)c1` [3-[[3-[[Hydroxy(octadecyloxy)phosphinyl]oxy]phenyl]methyl]thiazolium, hydrozide, inner salt], under setting [4], the IC50 was found to be 2.2e-05 M.
Consider `CCCCCCCCCCCCCCCCOCC(COC(=O)c1cccc(C[n+]2ccccn2)c1)OC` (stereo not shown) [1-[[3-[[3-(Hexadecyloxy)-2-methoxypropoxy]carbonyl]phenyl]methyl]pyridazinium, bromide], for which the IC50 under setting [3] was found to be 1.1e-05 M.
Under setting [4], `C=C(C)COC(COCCCCCCCCCCCCCCCC)COP(=O)([O-])Oc1ccccc1C[n+]1ccsc1` (stereo not shown) [3-[[2-[[[3-(Hexadecyloxy)-2-[(2-methyl-2-propenyl)oxy]propoxy]hydroxyphosphinyl]oxy]phenyl]methyl]thiazolium, hydroxide, inner salt] had an IC50 of 2.6e-06 M.
`CCCCCCCCCCCCCCc1cccc(OCC(COP(=O)([O-])Oc2cccc(C[S+](C)C)c2)OC)c1` (stereo not shown) [[[3-[[Hydroxy-[2-methoxy-3-(3-tetradecylphenoxy]propoxy]phosphinyl]oxy]-phenyl]methyl]dimethylsulfouium, hydroxide, inner salt]: the IC50 runs as follows: under setting [5], 2.9e-05 M; under setting [4], 3.4e-06 M.
For the compound `COC(CCCOCc1ccccc1)COP(=O)([O-])Oc1cccc(C[n+]2ccsc2)c1` (stereo not shown) [3-[[3-[[Hydroxy[[5-(phenylmethoxy)-2-methoxypentyl]oxy]phosphinyl]oxy]-phenyl]methyl]thiazolium, hydroxide, inner salt], the IC50 under setting [4] is 0.0001 M.
For the compound `CCCCCCCCCCCCOc1cccc(OCC(COP(=O)([O-])Oc2cccc(C[n+]3cccc4ccccc43)c2)OC)c1C` (stereo not shown) [1-[[3-[[[3-[3-(Dodecyloxy)-2-methylphenoxy]-2-methoxypropoxy]hydroxyphosphinyl]oxy]phenyl]methyl]quinolinium, hydroxide, inner salt], the concentration for half-maximal inhibition (IC50) by setting is: under setting [5], 1.2e-05 M; under setting [4], 7.3e-05 M.
Turning to `CCCCCCCCCCCCCCCCOCC(COP(=O)(O)Oc1cccc(C[P+](c2ccccc2)(c2ccccc2)c2ccccc2)c1)OC` (stereo not shown) [[[3-[[[3-(Hexadecyloxy)-2-methoxypropoxy]hydroxyphosphinyl]oxy]phenyl]-methyl]triphenylphosphonium, bromide], under setting [4], half-maximal inhibition (IC50) was put at 1.4e-05 M.
The same measure, in the same setting: with `COC(COCc1ccc(OCc2ccc(Cl)cc2)cc1)COP(=O)([O-])Oc1cccc(C[n+]2ccsc2)c1` (stereo not shown) [3-[[3-[[[3-[[4-[(4-Chlorophenyl)methoxy]phenyl]methoxy]-2-methoxypropoxy]hydroxyphosphinyl]oxy]phenyl]methyl]thiazolium, hydroxide, inner salt] the figure was 3e-05 M.
`CCCCCCCCCCCCCCCCOCC(COC(=O)c1cccc(C[N+](C)(C)C)c1)OC` (stereo not shown) [3-[[3-(Hexadecyloxy)-2-methoxypropoxy]-carbonyl]- --N, --N, --N-trimethylbenzenemethanaminium, bromide]: the IC50 came to 3e-05 M under setting [2] and 3.1e-05 M under setting [3].
Consider `CCCCCCCCCCCCCCCCOCC(COC(=O)c1cccc(C[n+]2ccsc2)c1)OC` (stereo not shown) [3-[[3-[[3-(Hexadecyloxy)-2-methoxypropoxy]carbonyl]phenyl]methyl]thiazolium, bromide], for which the half-maximal inhibitory concentration (IC50) is, setting by setting: under setting [1], 4.9e-05 M; under setting [2], 6.1e-06 M; under setting [3], 3.6e-06 M.
Under setting [5], `COC(COCCCCCCCCOc1ccc(-c2ccccc2)cc1)COP(=O)([O-])Oc1cccc(C[n+]2ccsc2)c1` (stereo not shown) [3-[[3-[[[3-[[8-([1,1'-Biphenyl]-4-yloxy)octyl]-oxy]-2-methyoxypropoxy]hydroxyphosphinyl]-oxy]phenyl]methyl]thiazolium, hydroxide, inner salt] came in with an IC50 of 2.3e-06 M.
Same read-out and setting: with `C=C(C)COC(COCCCCCCCCCCCCCCCC)COP(=O)([O-])Oc1cccc(C[N+](C)(C)C)c1` (stereo not shown) [3-[[[3-(Hexadecyloxy)-2[(2-methyl-2-propeny)oxy]propoxy]hydroxyphosphinyl]-oxy]- --N, --N, --N-trimethylbenzenemethanaminium, hydioxide, inner salt] the figure was 4.8e-05 M.
